Assay results taken from patent US20080241234A1, “PHARMACEUTICAL FORMULATIONS OF AN ANHYDRATE CRYSTAL FORM OF 2-(3-FLUORO-4-HYDROXYPHENYL)-7-VINYL-1,3-BENZOXAZOL-5-OL” (WYETH, priority 2006, published 2008).

Assay: Crystal form conversion on suspending and stirring in a solvent at room temperature
Format: physicochemical
Source text: The anhydrate crystal form (Form E) can be converted to other crystal forms under suitable conditions. […] 6, 2006).

crystal form obtained after suspension and stirring in water (suspended and stirred in water at room temperature for seven days): converted to a hydrate crystal form
SMILES: C=Cc1cc(O)cc2nc(-c3ccc(O)c(F)c3)oc12 [Form E, 2-(3-fluoro-4-hydroxyphenyl)-7-vinyl-1,3-benzoxazol-5-ol]
crystal form obtained after suspension and stirring in ethanol or acetone (suspended and stirred in ethanol or acetone at room temperature for seven days): another anhydrate crystal form is obtained
